In US20230381176A1, “A PHARMACEUTICAL COMPOSITION AND USE THEREOF FOR TREATMENT OF CANCER” (Ascentage Pharma (Suzhou) Co., Ltd., priority 2020, published 2023):

Tests used:
[1] = system: TP53wt, BRAFv600E, NRASwt, PTENwt, CDKN2Amut C32 cutaneous melanoma; experiment: C32 cutaneous melanoma model, Compound 5 and Dabrafenib + trametinib; assay type: in vivo
Method: In this experiment, a TP53wt , BRAFv600E , NRASwt, PTENwt, CDKN2Amut C32 cutaneous melanoma model (Wuxi Pharma Tech) was established to evaluate the anti-tumor effect of Compound 5 in combination with BRAFi (Dabrafenib)+MEKi (trametinib) (Selleck). The dosing regimen was as follows: • Compound 5: 50 mg/kg, PO QD 21 D, for a total of 25 days; • Dabrafenib +trametinib: Dabrafenib 30mg/kg,QD QD 21 D for a total of 25 days, trametinib 1 mg/kg
The dosing regimen of each drug in the dosing regimen for the combination is the same as the dosing regimen for the single drug.

[2] = system: PTK2 high ovarian PDX OV2423; experiment: PTK2 high ovarian PDX model OV2423, Compound 5 and carboplatin and/or paclitaxel; assay type: in vivo, mouse
Method: (§1) A subcutaneous xenograft tumor model of human tumor immunodeficient mice was established by cell inoculation: tumor cells in logarithmic growth phase were collected, counted, resuspended in 1×PBS, and the cell suspension concentration was adjusted to 2.5-5 ×10^7/mL. The tumor cells were inoculated subcutaneously in the right side of immunodeficient mice with a 1 mL syringe ([…]), 5-10×10^6/0.2 mL/mouse. All animal experiments were strictly in accordance with the specifications for the use and management of experimental animals in GenePharma Co., Ltd. and Suzhou Ascentage Pharma Co., Ltd. The calculation of relevant parameters refers to the Chinese NMPA “Guidelines for Non-Clinical Research Techniques of Cytotoxic Anti-tumor Drugs”.
(§2) Animal body weight and tumor size were measured twice weekly during the experiment. The state of the animal and the presence or absence of death were observed every day. The growth of tumor and the effects of treatment on normal behavior of animals were monitored routinely, specifically involving experimental animal activity, feeding and drinking, weight gain or loss, eyes, clothing hair and other abnormalities. The deaths and clinical symptoms observed during the experiment were recorded in the raw data. All operations for administration and measurement of mouse body weight and tumor volume were performed in a clean bench. According to the requirements of the experimental protocol, after the end of the last administration, plasma and tumor tissues were collected, weighed and photographed. The plasma and tumor samples were frozen at −80° C. for ready-to-use.
(§3) Tumor volume (TV) is calculated as: TV=a×b^2/2, wherein a and b represent the length and width of the tumor to be measured, respectively.
(§4) The relative tumor volume (RTV) is calculated as: RTV=Vt/V1, wherein V1 is the tumor volume at the start of grouping and administration, and Vt is the tumor volume measured on the t day after administration.
(§5) Change of body weight (%)=(measured body weight−body weight at the start of grouping)/body weight at the start of grouping×100%.
(§6) A dose of drug is considered to be severely toxic if the body weight of mouse is reduced by more than 20% or the number of drug-related deaths exceeds 20%.
(§7) According to the description by Clarke R., Issues in experimental design and endpoint analysis in the study of experimental cytotoxic agents in vivo in breast cancer and other models [J]. Breast Cancer Research & Treatment, 1997, 46(2-3): 255-278, synergy analysis was evaluated using the following formula: synergy factor=((A/C)×(B/C))/(AB/C); A=RTV value of drug A alone group; B=RTV value of drug B alone group; C=RTV value of the solvent control group, and AB=RTV value of the A and B combination group.
(§8) Use of mRECIST (Gao et al., 2015) measured tumor responses included stable disease (SD), partial tumor regression (PR), and complete regression (CR), determined by comparing tumor volume change at day t to its baseline: tumor volume change (%)=(Vt−V1)/V1. The BestResponse was the minimum value of tumor volume change (%) for t≥10. For each time t, the average of tumor volume changes from t=1 to t was also calculated. BestAvgResponse was defined as the minimum value of this average for t≥10. The criteria for response (mRECIST) were adapted from RECIST criteria (Gao et al., 2015; Therasse et al., 2000) and defined as follows: mCR, BestResponse<−95% and BestAvg Response<−40%; mPR, BestResponse<−50% and BestAvgResponse<−20%; mSD, BestResponse<35% and BestAvgResponse<30%; mPD, not otherwise categorized. SD, PR, and CR were considered responders and used to calculate response rate (%). […] Body weight of animals were monitored simultaneously. The change in body weight was calculated based on the animal weight of the first day of dosing (day 1). Tumor volume and changes in body weight (%) were represented as the mean±standard error of the mean (SEM).

[3] = system: PTK2-high liver PDX LI-03-1140; experiment: PTK2-high liver PDX model LI-03-1140, Compound 5 and Lenvatinib; assay type: in vivo, mouse
Method: as §1, §2, §3, §4
The evaluation index of anti-tumor activity is the relative tumor proliferation rate T/C (%), and the calculation formula thereof is: relative tumor proliferation rate T/C (%)=(TRTV/CRTV)×100%, TRTV is the RTV of treatment group, CRTV is the RTV of solvent control group.
as §5, §6, §7
as §8, with “The change in body weight was calculated based on the animal weight of the first day of dosing (day 1). Tumor volume and changes in body weight (%) were represented as the mean±standard error of the mean (SEM).” left out

A549 NSCLC xenograft = experiment: s.c. A549 NSCLC lung cancer model, Compound 5 and panobinostat; assay type: in vivo, mouse
[4] = Compound 5 50 mg/kg PO QD, Dabrafenib 30 mg/kg QD, trametinib 1 mg/kg
[5] = Compound 5 50 mg/kg orally once per day, carboplatin 30 mg/kg i.p. once a week, paclitaxel 10 mg/kg i.v. once a week, 28 days
[6] = Compound 5 50 mg/kg, Lenvatinib 20 mg/kg, orally once per day, 28 days
[7] = Compound 5 100 mg/kg orally once per day, panobinostat 3 mg/kg i.p. 5 days then 2 days break, 14 days

## Cc1cc(Nc2ncc(Cl)c(Nc3ccccc3S(=O)(=O)C(C)C)n2)c(OC(C)C)cc1C1=CCN(C2CCOCC2)CC1 [Compound 5, 5-chloro-N^2-(2-isopropoxy-5-methyl-4-(1-(tetrahydro-2H-pyran-4-yl)-1,2,3,6-tetrahydropyridin-4-yl)phenyl)-N^4-(2-(isopropylsulfonyl)phenyl)pyrimidine-2,4-diamine]
[1]; [4]
  RTV % @ D25: 17.80 ± 1.3%
  T/C % @ D25: 106.09%
[1]; in vivo
  antitumor activity (conclusion in words): no antitumor activity
[2]; [5]
  RTV on Day 28 after administration (mean ± standard error): 14.83 ± 3.19
  T/C on Day 28 after administration (%): 78.97%
[2]; animals per class
  mRECIST: 2/2 PD
[2]; mouse, in vivo
  antitumor activity (conclusion in words): minor antitumor activity
[3]; [6]
  RTV on Day 28 after administration (mean ± standard error): 5.00 ± 0.17
  T/C on Day 28 after administration (%): 92.08%
[3]; Day 28, animals per class
  mRECIST on Day 28 after administration: 2/2 PD
[3]; best response, animals per class
  mRECIST: 2/2 PD
[3]; mouse, in vivo
  antitumor activity (conclusion in words): no antitumor activity
A549 NSCLC xenograft; [7]
  RTV on Day 14 after administration (mean ± standard error): 3.21 ± 0.46
  T/C on Day 14 after administration (%): 89.54%
A549 NSCLC xenograft; mouse, in vivo
  antitumor activity (conclusion in words): minor antitumor activity
